Like-named read-outs stand apart in the source and are kept apart here.
Experiments:
[1] = test system: NF-κB; conditions: at the same concentration (125–500 μM); cited from earlier work
[2] = test system: HSF1; conditions: cited from earlier work
[3] = Blood pressure of the anaesthetized rat, intravenous infusion; assay type: in vivo; conditions: doses from 30 μg/kg/min
Excerpt: Most prostaglandins have strong effects on vascular smooth muscle, and will lower blood pressure in animals and humans. A compound can be tested for its effect on the blood pressure of the anaestheized rat. Prostaglandins A1 and E1 can be used for comparison. Male Wistar rats were anaesthetized and test drugs can be infused intravenously. Blood pressure and heart rate can be recorded from the femoral artery. […] It can be determined whether or not a test compound affects blood pressure at various dosages. As a control, solvent alone can be used.

[4] = test system: NF-κB; assay: Luciferase activity of NF-κB-LUC transfected HeLa cell pool after stimulation; assay type: cell-based, human; conditions: resistant HeLa cell pool, quadruplicate samples; control 1369±149
Excerpt: (§1) The fragment Kpn I-BamH I from the pGL3 basic vector containing the luciferase gene (PROMEGA) was inserted in the pcDNA3 vector (INVITROGEN) digested with Bgl II-KpnI. (This digestion removes the CMV-promoter from pcDNA3.) The resulting new vector was digested with Kpn I-Hind III and a promoter containing a ‘5×NF-κB binding sites-TATA box’ sequence was inserted upstream of the luciferase gene. This vector has been named STM.
(§2) To obtain stable HeLa cell lines expressing the luciferase gene under the control of NF-κB, HeLa cells were transfected (using lipofectamine plus GIBCO) with the STM-Pvu I linearized vector, and selected for 20 days with G418 (800 μg/ml). After selection, the resistant HeLa cell pool was controlled (in quadruplicate samples) for luciferase activity after stimulation with TNFα, IL-1 and TPA.

[5] = test system: HeLa cells; assay: in vitro; conditions: read-out: Toxicity Neutral Red LC50/μM; HeLa cells; concentration that killed half the cells
Protocol: This assay was carried out on HeLa cells using a technique analogous to that described below in Example 36(b) for Monkey Kidney 37RC cells.
(§3) The AC200/μM for HSF is the concentration at which the tested compound doubled the HSF activity in this assay. The IC50/μM for NF-κB is the concentration at which the tested compound halved the NF-κB activity in this assay. […] The LC50/μM is the concentration at which the tested compound killed half the cells in each assay. […] (n.d. means not done)
Cell viability was determined using the Neutral Red assay. 37RC cells were seeded at density of 6×10^4 cells/well in 24-well plates and incubated for 24 h. Confluent 37RC monolayers were treated with the test compounds at different dilutions for 24 h at 37° C. After incubation, the medium was removed and the cells were incubated with RPMI medium containing 40 μg/ml Neutral Red dye (500 μl/well). After 2 h at 37° C., the monolayers were washed with phosphate-buffered saline (PBS) and then with a solution containing 1% CaCl2 and 0.5% formaldehyde. After washing, a solution containing 1% acetic acid/50% ethanol was added to the monolayers (250 μl/well). After 10 min at room temperature, the absorbance was determined with a microplate reader (Victor 1420, Wallac) at 540 nm.

[6] = test system: NF-κB; assay: NF-κB-dependent luciferase reporter gene assay in HeLa κB-transformed cells stimulated with TPA; assay type: cell-based, human
Protocol: (§4) HeLa cell clone 13B, stably transfected with a luciferase reporter plasmid controlled by the human hsp70 promoter, and HeLa κB-transformed cells, stably transfected with a luciferase reporter plasmid controlled by a synthetic NF-κB-STM construct, were maintained in DMEM medium supplemented with 10% FBS, L-glutamine (2 mM) and G418 (250 μg/ml) at 37° C. in a 5% CO2 humidified atmosphere.
(§5) Cells were seeded at a density of 4×10^4 cells/well in 96-well plates. After 18–20 h, the medium was removed and cells were treated for 8 h with the test compounds (100 μl) at the appropriate dilutions in serum-free medium. For the NF-κB-dependent reporter gene assay, cells were stimulated with TPA (25 ng/ml) 2 h after exposure to the compounds.
(§6) After incubation, the medium was removed and cells were lysed in 10 μl of lysis buffer. The luciferase activity was determined by adding 100 μl of substrate and measuring the release of light using a Victor 1420 microplate reader (Wallac, Finland).
as §1, §2, §3

[7] = test system: HSF; assay: HSF activation, luciferase reporter controlled by the human hsp70 promoter in HeLa cell clone 13B; assay type: cell-based; conditions: read-out: HSF AC200/μM
Protocol: as §4, §5, §6, §3

[8] = test system: Sendai virus; assay: Replication of Sendai virus in 37RC cells, virus yield by haemagglutinin titration; assay type: cell-based; conditions: Respirovirus muris; 50% inhibitory dose/concentration at 24 hours, Sendai virus in 37RC cells; read-out: ID50/μM
Protocol: Monkey kidney 37RC cells were grown at 37° C. in RPMI medium supplemented with 5% foetal bovine serum (FBS), L-glutarine (2 mM) and antibiotics. Sendai virus was grown in the allantoic cavity of 10-day-old embryonated eggs. Viral titre was expressed in haemagglutinating units (HAU) per ml; haemagglutinin titration was done according to standard procedures, as described in C. Amici et al. (J. Virol. 68: 6890–6899, 1994). […] Confluent 37RC monolayers were infected with Sendai Virus (5 HAU/ml) for 1 h at 37° C. After 1 hour incubation, viral inoculum was removed and cells were treated with the test compounds at different concentrations. Virus yields were determined 24 h post infection by haemagglutinin titration. Mock-infected cells were treated identically and processed for cytotoxicity assay (Neutral Red assay) at the same time (see below). The results were expressed as HAU/ml (each point represents the mean of duplicate samples).

[9] = in vitro; assay type: cell-based; conditions: monkey, 50% lethal dose/concentration, neutral red assay, 37RC cells, read-out: LC50/μM
Protocol: Cell viability was determined using the Neutral Red assay.

[10] = in vitro; assay type: cell-based; conditions: human
Protocol: HeLa cells were plated in 96-well microtiter plates in 100 μl culture medium (4×10^4/well). After 20 hours, the cells were exposed to the test compounds at different dilutions and incubated for the next 8 h at 37° C. in a 5% CO2 humidified atmosphere. After 6 h incubation, the Alamar Blue was added in an amount equal to 10% of the culture volume (10 μl). Two hours after the addition of the Alamar Blue, the fluorescence was measured using a Victor 1420 microplate reader.

[11] = test system: Monkey kidney 37RC cells; assay type: cell-based; conditions: concentration 100% toxic to uninfected 37RC cells, visually by microscopy

## O=C1C=CCC1 [cyclopent-2-en-1-one]
[1]
  block of NF-κB activation by chemical or physiological inducers: able to block NF-κB activation
[2]
  concentration able to activate HSF1 and trigger synthesis of HSP70: 125 to 500 µM

## CCCCC[C@H](O)/C=C/[C@H]1C=CC(=O)[C@@H]1CCCCCCC(=O)O [Prostaglandin A1]
[3]
  effect on blood pressure: dose-dependant falls in blood pressure

## CCCCC[C@H](O)/C=C/[C@H]1[C@H](O)CC(=O)[C@@H]1CCCCCCC(=O)O [Prostaglandin E1]
[3]
  effect on blood pressure: dose-dependant falls in blood pressure

## TNFα
[4]
  luciferase activity: 6111±1231

## CCCCCCCCCCCCCC(=O)O[C@@H]1[C@@H](C)[C@@]2(O)[C@@H](C=C(CO)C[C@]3(O)C(=O)C(C)=C[C@@H]23)[C@H]2C(C)(C)[C@]12OC(C)=O [TPA]
[4]
  luciferase activity: 7181±444

## [(1R,2R)-2-(Naphthalen-2-ylsulfanyl)-4-oxocyclopentyl]-carbamic acid methyl ester; compound with benzene [CTM-238]
[5]
  CC50: 113 µM
[6]
  IC50: 17 µM
[7]
  EC (2-fold HSF activity): 26 µM

## CC(C)/C=C1/C(=O)C=CC1NC(=O)c1ccccc1 (stereo not drawn) [CTC-172, N-(5-iso-Butylidene-4-oxocyclopent-2-enyl)-benzamide]
[8]
  IC50: 0.3 µM
[6]; Homo sapiens, concentration that halved NF-κB activity, HeLa reporter cells, TPA 25 ng/ml, 8 h treatment
  IC50: < 6.2 µM
[9]
  CC50 at 24 h: 4 µM
[10]
  CC50 at 8 h: 50 µM
[7]; Homo sapiens, concentration at which the compound doubled HSF activity, HeLa clone 13B, 8 h treatment
  EC (2-fold HSF activity): < 6.2 µM
[11]
  TD100/μM: 10 µM
